This is an account of results in paper PMC4338079, “N-Terminus Three Residues Deletion Mutant of Human Beta-Defensin 3 with Remarkably Enhanced Salt-Resistance” (PLoS ONE, 2015).

Where a SMILES comes first, the peptide text is derived from it. Where no end group is shown, it is not given here.

One data set has as its system K. pneumonia ATCC 700603. In kind it is cell-based, Klebsiella pneumonia. The conditions noted are these: 10^5-10^6 CFU/ml in PBS pH 7.2, 3 h at 37°C, colony count, mean ± SD of three. An excerpt: (§1) Ten strains obtained from the American Type Culture Collection (ATCC) and China Center of Industrial Culture Collection (CICC) were used for antibacterial and salt resistance assays. The Gram-positive strains were Staphyloccocus aureus ATCC 29213, Enterococcus faecalis ATCC 29212, Staphylococcus epidermidis ATCC 12228, Enterococcus faecium ATCC 6057, and Enterococcus faecium ATCC 19434. The Gram-negative strains were Escherichia coli ATCC 25922, Pseudomonas aeruginosa ATCC 15442, Klebsiella pneumonia ATCC 700603, Shigella flexneri CICC 21534, and Shigella sonnei CICC 21535. Fifteen E. coli clinical isolates were collected from 302 Military Hospital of China. The Gram-positive and Gram-negative strains were grown in Luria—Bertani (LB) and Mueller—Hinton (MH) media at 37°C, respectively.
(§2) The antibacterial activities of these peptides were determined in a modified microdilution assay as described previously. […] The five concentrations of the peptides were added to 200 μl of the bacterial suspension and then incubated at 37°C for 3 h before CFU numbers were determined. […] The cells were serially diluted in the same buffer, plated on Luria broth plates, and then incubated for 18 h at 37°C before the resulting colonies were counted. The bactericidal activity was expressed as the ratio of colonies counted to the number of colonies on a control plate. […]

The next data set deals with S. aureus ATCC 29213. The class given is cell-based, Staphyloccocus aureus. Conditions: 10^5-10^6 CFU/ml in PBS pH 7.2, 3 h at 37°C, colony count, mean ± SD of three.
From the text: as §1, §2

The next data set concerns E. faecalis ATCC 29212. In kind it is cell-based, Enterococcus faecalis. Conditions: 10^5-10^6 CFU/ml in PBS pH 7.2, 3 h at 37°C, colony count, mean ± SD of three.
From the text: as §1, §2

Data set [1] concerns S. epidermidis ATCC 12228. The class given is cell-based, Staphylococcus epidermidis. The conditions noted are these: 10^5-10^6 CFU/ml in PBS pH 7.2, 3 h at 37°C, colony count, mean ± SD of three.
From the text: as §1, §2

Another data set has as its system E. faecium ATCC 19434. In kind it is cell-based, Enterococcus faecium. Conditions: 10^5-10^6 CFU/ml in PBS pH 7.2, 3 h at 37°C, colony count, mean ± SD of three.
From the text: as §1, §2

A further data set relates to E. faecium ATCC 6057. The class given is cell-based, Enterococcus faecium. The conditions noted are these: 10^5-10^6 CFU/ml in PBS pH 7.2, 3 h at 37°C, colony count, mean ± SD of three.
From the text: as §1, §2

Another data set deals with E. coli ATCC 25922. In kind it is cell-based, Escherichia coli. Conditions: 10^5-10^6 CFU/ml in PBS pH 7.2, 3 h at 37°C, colony count, mean ± SD of three.
From the text: as §1, §2

Another data set concerns P. Aeruginosa ATCC 15442. In kind it is cell-based, Pseudomonas aeruginosa. Conditions: 10^5-10^6 CFU/ml in PBS pH 7.2, 3 h at 37°C, colony count, mean ± SD of three.
From the text: as §1, §2

Another data set concerns S. flexneri CICC 21534. In kind it is cell-based, Shigella flexneri. The conditions noted are these: 10^5-10^6 CFU/ml in PBS pH 7.2, 3 h at 37°C, colony count, mean ± SD of three.
From the text: as §1, §2

In the next data set the test system is S. sonnei CICC 21535. In kind it is cell-based, Shigella sonnei. The conditions noted are these: 10^5-10^6 CFU/ml in PBS pH 7.2, 3 h at 37°C, colony count, mean ± SD of three.
From the text: as §1, §2

The test system of data set [2] is four Gram-positive and five Gram-negative bacteria. The experiment in a line: Salt resistance assay, summary over the nine tested strains. The class given is cell-based. The conditions noted are these: peptide 10 μg/ml (30 μg/ml K. pneumonia). On the procedure: (§3) The antibacterial activities of these peptides were determined in a modified microdilution assay as described previously. The strains were grown under aerobic condition in MH or LB broth at 37°C and then harvested in the exponential phase of growth (OD600 ≈ 0.6. OD, optical density). After dilution, the test strains were adjusted to 10^5 to 10^6 CFU bacteria per ml in phosphate-buffered saline solution (pH 7.2). The five concentrations of the peptides were added to 200 μl of the bacterial suspension and then incubated at 37°C for 3 h before CFU numbers were determined. Phosphate buffer served as the negative control. The cells were serially diluted in the same buffer, plated on Luria broth plates, and then incubated for 18 h at 37°C before the resulting colonies were counted. The bactericidal activity was expressed as the ratio of colonies counted to the number of colonies on a control plate. The 90% lethal concentration (LD90) is the concentration of the peptide at which 90% of viable cells are killed.
(§4) For the salt resistance assay, NaCl was included in the incubation buffer (1% MH or LB) over a range of concentrations (0, 50, 100, 150, and 200 mM NaCl) potentially present in the airway surface fluid of healthy subjects and patients with cystic fibrosis. For E. coli clinical isolates, the NaCl concentrations were increased to 0, 50, 100, 150, 200, 250, and 300 mM. The peptide concentration used in the salt dependence assay was 10 μg/ml, except for the 30 μg/ml concentration used against K. pneumonia ATCC 700603. Each assay was performed in triplicate. Bactericidal activity (the mean and standard deviation of three assays) was expressed as the ratio between the number of colonies counted and the number of colonies on a control plate.

In data set [3] the test system is fifteen E. coli clinical isolates. The experiment in a line: Salt resistance assay against clinical isolates. Conditions: of 15 E. coli clinical isolates, peptide 10 μg/ml. The class given is cell-based, Escherichia coli.
From the text: as §1, §3, §4

Another data set deals with Vero cells. On the procedure:
Vero cells suspended in Dulbecco’s modified Eagle’s medium (DMEM)-high glucose culture medium supplemented with 10% (vol/vol) fetal calf serum and 1% (vol/vol) penicillin—streptomycin were seeded on a 96-well microtiter plate at a density of 1×10^4 cells per well. After incubation overnight at 37°C under 5% CO2 in a humidified atmosphere, the cells were washed twice with buffer (pH 7.4) containing 20 mM HEPES and 150 mM NaCl. Defensins were diluted in the same wash buffer, and 200 μl was added per well. The buffer was discarded after 2 h of incubation at 37°C under 5% CO2. Subsequently, 200 μl of DMEM and 50 μl of 3-(4,5-dimethylthiazol-2-yl)-2,5-diphenyltetrazolium bromide (MTT, 5 mg/ml) were added. DMEM (100%) and MTT were discarded, and 200 μl of DMSO was added in the plate after 6 h of incubation at 37°C under 5% CO2. The absorbance was measured at 490 nm with a microtiter plate reader.

As to `CC[C@H](C)[C@H](NC(=O)[C@H](CCC(N)=O)NC(=O)[C@H](CCC(=O)O)NC(=O)[C@H](CCC(=O)O)NC(=O)[C@H](CCCCN)NC(=O)[C@@H]1CCCN1C(=O)[C@H](CC(C)C)NC(=O)[C@H](CS)NC(=O)[C@H](CO)NC(=O)[C@H](CC(C)C)NC(=O)[C@@H](NC(=O)[C@H](C)NC(=O)[C@H](CS)NC(=O)[C@H](CCCNC(=N)N)NC(=O)CNC(=O)CNC(=O)[C@H](CCCNC(=N)N)NC(=O)[C@@H](NC(=O)[C@H](CCCNC(=N)N)NC(=O)[C@H](CS)NC(=O)[C@@H](N)Cc1ccc(O)cc1)C(C)C)C(C)C)C(=O)NCC(=O)N[C@@H](CCCCN)C(=O)N[C@@H](CS)C(=O)N[C@@H](CO)C(=O)N[C@H](C(=O)N[C@@H](CCCNC(=N)N)C(=O)NCC(=O)N[C@@H](CCCNC(=N)N)C(=O)N[C@@H](CCCCN)C(=O)N[C@@H](CS)C(=O)N[C@@H](CS)C(=O)N[C@@H](CCCNC(=N)N)C(=O)N[C@@H](CCCNC(=N)N)C(=O)N[C@@H](CCCCN)C(=O)N[C@@H](CCCCN)C(=O)O)[C@@H](C)O` [hBD-3Δ10] (H-YCRVRGGRCAVLSCLPKEEQIGKCSTRGRKCCRRKK-OH; N-terminus and C-terminus assumed), in the data set with K. pneumonia ATCC 700603, the “LD90 (Mean ± SD)” value is reported as “more than 100 μg/ml”.
Take “GIINTLQKYYCRVRGGRCAVLSCLPKEEQIGKCSTRGRKCCRRKK (cysteines drawn unpaired) [hBD-3, human beta-defensin 3]”: the “LD90 (Mean ± SD)” value is 4.0 ± 0.8 µg/mL with S. aureus ATCC 29213; 2.4 ± 1.0 µg/mL with E. faecalis ATCC 29212; 3.5 ± 1.2 µg/mL in data set [1]; 2.3 ± 0.5 µg/mL with E. faecium ATCC 19434; 1.6 ± 0.4 µg/mL with E. faecium ATCC 6057; 8.0 ± 1.2 µg/mL in the data set with E. coli ATCC 25922. For the same compound, the “LD90 (Mean ± SD)” value in the data set with P. Aeruginosa ATCC 15442 worked out at 6.8 ± 0.9 µg/mL; in the data set on K. pneumonia ATCC 700603, 18.6 ± 2.8 µg/mL; in the data set with S. flexneri CICC 21534 it was 3.7 ± 0.2 µg/mL; with S. sonnei CICC 21535, 4.0 ± 0.7 µg/mL. For the same compound, the “Effect of NaCl on antibacterial activity” value in [2] (50 mM NaCl, all the tested strains, except for E. coli) is on record as “not or slightly inhibited”; in data set [2] (200 mM NaCl versus 0 mM NaCl, P < 0.01) it was “greatly inhibited”. The “Number of isolates in which 50% or more activity was retained” value in data set [3] (200 mM NaCl) was “two”. The “Concentration from which cytotoxicity starts” value with Vero cells was “higher than 20 μg/ml”.
As for “NTLQKYYCRVRGGRCAVLSCLPKEEQIGKCSTRGRKCCRRKK (cysteines drawn unpaired) [hBD-3Δ4]”, in data set [2] (100 mM NaCl, all the tested strains, except for S. aureus), the “Effect of NaCl on antibacterial activity” value is listed as “almost the same antimicrobial activity as it would have in the absence of NaCl”. Also, the figures for the “Number of isolates in which 50% or more activity was retained” value in data set [3] (200 mM NaCl), in [3] (250 mM NaCl) and in data set [3] (300 mM NaCl) were 14 isolates, 8 isolates and 5 isolates, respectively.
